Assay results taken from patent US20250049823A1, “MITOCHONDRIAL ATP INHIBITORS TARGETING THE GAMMA SUBUNIT PREVENT METASTASIS” (LUNELLA BIOTECH, INC., priority 2021, published 2025).

Experiments:
[1] = system: MCF10A cells; assay: 2D monolayer growth, non-tumorigenic control cells; assay type: cell-based; conditions: 10 μM, normal control human mammary epithelial cell line
Protocol: (§1) FIGS. 8A and 8B show monolayer growth of MDA-MB-231 and MCF10A cells, respectively, treated with 10 μM Bedaquiline over time. […] Unpaired t-test *p<0.05, **p<0.005.
(§2) Reagents and Model Cell Lines: It should be apparent that other cell lines may be used without departing from the present approach. BioTracker ATP-Red 1 (#SCT045) was obtained commercially from Merck-Millipore, Inc. The triple-negative human breast cancer cell line, MDA-MB-231, was obtained from the American Type Culture Collection (ATCC). MCF10A cells, a non-tumorigenic human breast epithelial cell line, were also obtained from ATCC. MDA-MB-231 cells were cultured in DMEM (High Glucose) supplemented with 10% Fetal Bovine Serum (FBS, Sigma Aldrich), 2 mM Glutamax (Gibco, Life Technologies, Waltham, MA, USA), and 1% penicillin/streptomycin (Gibco, Life Technologies). The MCF10A cell line was maintained in a mammary epithelial cell growth medium (MEGM; Lonza, Basel, Switzerland) supplemented with 0.4% Bovine pituitary extract (BPE), 0.1% insulin, 0.1% hEGF, 0.1% Hydrocortisone, 0.1% GA-1000, and 100 ng/ml of cholera toxin. All cell lines were cultured at 37° C. in 5% CO2 in a humidified atmosphere.

[2] = system: MDA-MB-231 cells; assay: 3D anchorage-independent growth (mammosphere formation) assay; assay type: cell-based, human; conditions: for Mammosphere formation inhibition compared to Bedaquiline (FIG. 12): 0.5 μM to 10 μM, all concentrations tested; for Mammosphere formation inhibition at the higher concentrations (FIG. 12): higher concentrations of 0.5 μM to 10 μM range
Protocol: One-way ANOVA, Dunnett's multiple comparisons test, **p<0.005, ***p<0.0005.
3D Anchorage Independent Growth Assay: This assay is also referred to as the mammosphere formation assay. A single-cell suspension was prepared using enzymatic, and manual disaggregation (25-g needle). Then, cells were plated at a density of 500 cells/cm^2 in mammosphere medium (DMEM-F12+1× B-27 Plus Supplement+20 ng/ml EGF+Pen/Strep) under non-adherent conditions, in culture dishes pre-coated with (2-hydroxyethylmethacrylate) (poly-HEMA, Sigma Aldrich Inc.), called “mammosphere plates.” Cells were grown for 5 days and maintained in a humidified incubator at 37° C. After 5 days of culture, 3D-mammospheres >50 μm were counted using an eye piece (“graticule”), and the percentage of cells plated which formed spheres was calculated and is referred to as percent mammosphere formation, and was normalized to one (1=100% MFE). 3D mammosphere formation efficiency (MFE) was analyzed in both the ATP-low and ATP-high sub-populations of cells. All 3D mammosphere experiments were performed in triplicate, at least 3 times independently.

[3] = system: PARP; assay: Western blot analysis of PARP protein expression; conditions: 0.1, 1 and 10 μM, 120 hours
[4] = target: ATP5F1C (Homo sapiens, UniProt P36542); conditions: 0.1, 1 and 10 μM; 24, 48, 72 and 120 hours; relative to vehicle (DMSO)
[5] = system: MDA-MB-231 cells; assay: CAM assay: tumor growth and spontaneous metastasis; assay type: in vivo, chicken; conditions: daily for 8 days
Protocol: (§3) Next, to test in vivo activity, the well-established CAM assay was used with MDA-MB-231 cells, to measure the effect of Bedaquiline effects on tumor growth, spontaneous metastasis and embryo toxicity. FIG. 11A illustrates the timeline for the CAM assay. An inoculum of 1×10^6 MDA-MB-231 cells was added onto the CAM of each egg (day E9) and then eggs were randomized into groups. On day E10, tumors were detectable and they were then treated daily for 8 days with vehicle alone (1% DMSO in PBS) or Bedaquiline. After 8 days of drug administration, on day E18, all tumors were weighed, and the lower CAM was collected to evaluate the number of metastatic cells, as analyzed by qPCR with specific primers for Human Alu sequences. Before each drug administration, treatment tolerability was evaluated by scoring the number of live and dead chicken embryos.
(§4) Tumor Growth, Metastasis and Embryo Toxicity Assays: Xenograft assays were carried out by INOVOTION (Société: 811310127), La Tronche-France. […] For tumor growth assays, at least 14 tumor samples were collected and analysed per group (N≥14). […] Genomic DNA was extracted from the CAM (commercial kit) and analyzed by qPCR with specific primers for Human Alu sequences. […] Before each administration, the treatment tolerability was evaluated by scoring the number of live and dead embryos.

[6] = system: chicken embryos; assay: CAM assay: embryo toxicity; assay type: in vivo; conditions: all concentrations tested, daily for 8 days
Protocol: as §3, §4

[7] = system: p21; assay: Western blot analysis of p21 protein expression; conditions: 0.1, 1 and 10 μM, 120 hours
[8] = system: MDA-MB-231 cells; assay: 2D monolayer growth; assay type: cell-based, human; conditions: 10 μM, time-dependent
Protocol: as §1, §2

[9] = system: MDA-MB-231 cells; assay: Live cell/dead cell analysis by FACS; assay type: cell-based, human; conditions: 1 and 10 μM
Protocol: FIGS. 10D-10F show the results of live cell/dead cell analysis. MDA-MB-231 cells were treated with Bedaquiline (1 and 10 μM) or vehicle alone, for 48, 72 and 120 hours, and then subjected to live/dead analysis by FACS. […] However, at 72 and 120 hours (FIGS. 10E and 10F), a decrease in the live cell population and an increase in the dead cell population can be seen. […] Two-way ANOVA, Sidak's multiple comparisons test, ns=not significant, *p<0.01, **p<0.001, ***p<0.0005.

[10] = system: MDA-MB-231 cells; assay: Cell cycle analysis by FACS; assay type: cell-based, human
Protocol: There is a 2-fold reduction of MDA-MB-231 cells in S-phase and a concomitant 2-fold increase in the sub-G0-G1 population, after 120 hours of treatment. Two-way ANOVA, Sidak's multiple comparisons test, ns=not significant, ***p<0.0005. FIGS. 9C and 9D show representative FACS tracings for the control and for cells treated with Bedaquiline, respectively.
FIGS. 10A-10C show cell cycle populations for MDA-MB-231 cells treated with Bedaquiline (1 and 10 μM) or vehicle alone, after 48, 72 and 120 hours, respectively. Cell cycle analysis was performed using FACS. […] However, at 72 and 120 hours, a decrease in the S-phase population and a concomitant increase in the sub-G0-G1 population can be seen in FIGS. 10B and 10C. Two-way ANOVA, Sidak's multiple comparisons test, ns=not significant, *p<0.01, **p<0.001, ***p<0.0005.
Cell Cycle Analysis by FACS: Cell-cycle analysis was performed on the ATP-high and ATP-low cell sub-populations, by FACS analysis using the Attune NxT Flow Cytometer. Briefly, after trypsinization, the re-suspended cells were incubated with propidium iodide, as per the manufacturer's recommendations (Merck Millipore, Inc.). At least 25,000 events were analyzed per condition. Gated cells were categorized into cell-cycle stages.

[11] = system: MDA-MB-231 cells; assay: ATP assay using BioTracker ATP-Red 1 (mitochondrial ATP levels); assay type: cell-based; conditions: Homo sapiens, 120 hours of treatment, read-out: Maximal inhibition of mitochondrial ATP production
Protocol: FIG. 7 compares the fold-change of BioTracker ATP-Red (signal mean) between the control and MDA-MB-231 cells treated with Bedaquiline. […] The data in FIG. 7 based on two-way ANOVA, Sidak's multiple comparisons test, *p<0.05, **p<0.005, ***p<0.0005, ****p<0.0001.
ATP assay using BioTracker ATP-Red 1: Cells were stained with BioTracker ATP-Red 1 after various treatments. After 30 minutes of incubation, the cells were washed twice with DPBS, collected and dissociated into a single-cell suspension with a 40 μm cell strainer. The cells were analyzed using the Attune NxT Flow Cytometer. Means of the signal (at 570 nm) were compared.

[12] = system: MDA-MB-231 cells; assay: Cell migration assay (Transwells); assay type: cell-based; conditions: Homo sapiens, 32 hours then 16 hours in Transwells
Protocol: MDA-MB-231 cells were cultured in presence of Bedaquiline (10 μM) for 32 hours and moved to the Transwells for 16 hours in presence of Bedaquiline (10 μM). Unpaired t-test, **p<0.005.
Cell Migration Assays: Briefly, 3.5×10^4 cells in 0.5 ml of serum-free DMEM with 0.1% BSA were added to the wells of 8-μm pore, non-coated membrane modified Boyden chambers (Transwells). The lower chambers contained 10% fetal bovine serum in DMEM to serve as a chemo-attractant. Cells were incubated at 37° C. and allowed to migrate throughout the course of 16 hours. Noninvasive cells were removed from the upper surface of the membrane by scrubbing with cotton swabs. Chambers were stained in 0.5% crystal violet diluted in 100% methanol for 30-60 min, rinsed in water and examined under a bright-field microscope. Values for invasion and migration were obtained by counting five fields per membrane (20× objective) and represent the average of three independent experiments.

COc1nc2ccc(Br)cc2cc1[C@@H](c1ccccc1)[C@@](O)(CCN(C)C)c1cccc2ccccc12 [Bedaquiline, (1R,2S)-1-(6-bromo-2-methoxyquinolin-3-yl)-4-(dimethylamino)-2-naphthalen-1-yl-1-phenylbutan-2-ol]
2D monolayer growth [1]: No effect was observed
inhibition at 10 µM ([2]; Homo sapiens, MDA-MB-231, 10 μM): ~65%
PARP protein expression [3]: decreased in a concentration-dependent manner
ATP5F1C protein expression [4]: down-regulated
Inhibition of spontaneous metastasis ([5]; 120 μM treatment, qPCR Human Alu in lower CAM): 84%
Effect on tumor growth (average tumor weight) ([5]; day E18): no statistically significant effect
Toxicity for chick embryos (egg survival) [6]: not toxic
p21 protein expression [7]: decreased in a concentration-dependent manner
2D monolayer growth [8]: effectively inhibits 2D growth
Apoptotic cell population (early or late) ([9]; 72 and 120 hours): no increase
Dead cell population ([9]; 72 and 120 hours): increase
Live cell population ([9]; 72 and 120 hours): decrease
Live/dead cell populations ([9]; 48 hours): No effects were detectable
S-phase population ([10]; 1 and 10 μM, 72 and 120 hours): decrease
sub-G0-G1 population ([10]; 1 and 10 μM, 72 and 120 hours): increase
Cell cycle populations ([10]; 1 and 10 μM, 48 hours): No effects were detectable
Increase in the sub-G0-G1 population ([10]; after 120 hours of treatment): 2 fold
Reduction of cells in S-phase ([10]; after 120 hours of treatment): 2 fold
inhibition at 10 µM [11]: 75%
inhibition at 10 µM [12]: ~50%

COc1nc2ccc(CCCCOC(=O)CCCCCCCCCCC[P+](c3ccccc3)(c3ccccc3)c3ccccc3)cc2cc1[C@@H](c1ccccc1)[C@@](O)(CCN(C)C)c1cccc2ccccc12.[Br-] [structure [2B]]
Mammosphere formation inhibition compared to Bedaquiline (FIG. 12) [2]: more potent than unconjugated Bedaquiline
Mammosphere formation inhibition at the higher concentrations (FIG. 12) [2]: exceptional mammosphere formation inhibition

COc1nc2ccc(CCCCOC(=O)CCCCC[P+](c3ccccc3)(c3ccccc3)c3ccccc3)cc2cc1[C@@H](c1ccccc1)[C@@](O)(CCN(C)C)c1cccc2ccccc12.[Cl-] [structure [3B], [6-[4-[3-[(1R,2S)-4-(dimethylamino)-2-hydroxy-2-(1-naphthyl)-1-phenyl-butyl]-2-methoxy-6-quinolyl]butoxy]-6-oxo-hexyl]-triphenyl-phosphonium; chloride]
Mammosphere formation inhibition compared to Bedaquiline (FIG. 12) [2]: more potent than unconjugated Bedaquiline
Mammosphere formation inhibition at the higher concentrations (FIG. 12) [2]: exceptional mammosphere formation inhibition
